Laboratory results: PMC9539280 (Advanced Science, 2022)

Tests used:
hCMs [1] = tested on: hCMs
hCMs [2] = experiment: Spontaneous calcium transient measurement (Fluo-4) in hCMs; details: spontaneous, 6 days
[3] = escalating concentrations (lopinavir: high dosage only)

Row | SMILES | spontaneous calcium transients (hCMs [1]) | calcium transient amplitude (hCMs [2]; escalating concentrations (1-20 μM)) | time to 50% decay of the calcium transients (hCMs [2]; [3]) | time to peak of the calcium transients (hCMs [2]; [3])
1 | Cc1cccc(/C=N/Nc2cc(N3CCOCC3)nc(OCCc3ccccn3)n2)c1 [Apilimod, apilimod] | no calcium transients were observed |  |  | 
2 | CCC(CC)COC(=O)[C@H](C)N[P@](=O)(OC[C@H]1O[C@@](C#N)(c2ccc3c(N)ncnn23)[C@H](O)[C@@H]1O)Oc1ccccc1 [Remdesivir, remdesivir] |  | tended to decrease | significantly increased | significantly increased
